Here are results for 2 compounds from patent publication US20110015162A1, “15,16-Methylene-17-hydroxy-19-nor-21-carboxylic acid-steroid Y-lactone derivative, use thereof and medicinal products containing the derivative” (Bayer Schering Pharma Aktiengesellschaft, priority 2007, published 2011).

SMILES strings stand for the structures. pEC50, pIC50: −log10 of the molar value. Where two headings read alike, the source gives them in different places.

By pIC50 is commonly meant the IC50 on a negative log10 scale, so that one unit is a factor of ten. A lower pIC50 goes with a high IC50. Usually pEC50 stands for the EC50 on a negative log10 scale, so that one unit is a factor of ten.

Experiment [1] concerns the target T1, mineralocorticoid receptor (Homo sapiens, UniProt P08235).
T1 sequence (P08235 1-984): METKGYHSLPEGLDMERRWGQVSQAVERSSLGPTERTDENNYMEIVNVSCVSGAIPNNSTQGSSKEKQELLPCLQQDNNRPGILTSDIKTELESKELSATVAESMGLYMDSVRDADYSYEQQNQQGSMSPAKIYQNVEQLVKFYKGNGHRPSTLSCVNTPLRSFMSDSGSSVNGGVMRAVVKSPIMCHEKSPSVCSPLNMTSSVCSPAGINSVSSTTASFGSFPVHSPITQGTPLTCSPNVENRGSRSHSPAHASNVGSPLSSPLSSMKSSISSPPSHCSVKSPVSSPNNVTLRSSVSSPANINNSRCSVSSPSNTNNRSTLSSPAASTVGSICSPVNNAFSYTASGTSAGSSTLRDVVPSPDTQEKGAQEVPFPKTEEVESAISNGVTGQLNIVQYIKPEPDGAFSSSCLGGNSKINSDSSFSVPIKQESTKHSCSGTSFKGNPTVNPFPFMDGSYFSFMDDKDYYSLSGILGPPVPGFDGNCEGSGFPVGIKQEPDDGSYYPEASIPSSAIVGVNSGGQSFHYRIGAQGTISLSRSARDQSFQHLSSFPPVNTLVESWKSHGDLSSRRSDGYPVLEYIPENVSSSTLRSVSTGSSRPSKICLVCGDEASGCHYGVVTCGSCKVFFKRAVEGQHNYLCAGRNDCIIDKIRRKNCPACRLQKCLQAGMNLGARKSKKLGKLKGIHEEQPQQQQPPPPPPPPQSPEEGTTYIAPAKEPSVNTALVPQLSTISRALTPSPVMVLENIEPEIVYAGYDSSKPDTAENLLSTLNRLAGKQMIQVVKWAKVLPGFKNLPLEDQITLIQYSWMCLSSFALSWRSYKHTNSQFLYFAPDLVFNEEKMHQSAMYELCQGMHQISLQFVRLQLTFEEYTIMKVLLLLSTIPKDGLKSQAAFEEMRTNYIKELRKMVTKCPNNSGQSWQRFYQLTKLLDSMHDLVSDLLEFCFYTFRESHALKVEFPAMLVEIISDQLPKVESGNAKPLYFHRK
The experiment can be described thus: Antimineralocorticoid action by transactivation test (MDCK reporter cells).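 For Emax: percent inhibition of the aldosterone-stimulated reporter signal.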 Format: cell-based. On the set-up: expressed in transfected cells; host or cells: MDCK cells. The following applies: for Emax: MDCK, read-out: Mineralocorticoid receptor Antagonism efficacy. Put shortly: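 MDCK reporter cells expressing human mineralocorticoid receptor, transiently carrying luciferase under a steroid hormone-responsive promoter.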

In experiment [2] the target is T2, androgen receptor (Homo sapiens, UniProt P10275).
T2 sequence (P10275 1-920): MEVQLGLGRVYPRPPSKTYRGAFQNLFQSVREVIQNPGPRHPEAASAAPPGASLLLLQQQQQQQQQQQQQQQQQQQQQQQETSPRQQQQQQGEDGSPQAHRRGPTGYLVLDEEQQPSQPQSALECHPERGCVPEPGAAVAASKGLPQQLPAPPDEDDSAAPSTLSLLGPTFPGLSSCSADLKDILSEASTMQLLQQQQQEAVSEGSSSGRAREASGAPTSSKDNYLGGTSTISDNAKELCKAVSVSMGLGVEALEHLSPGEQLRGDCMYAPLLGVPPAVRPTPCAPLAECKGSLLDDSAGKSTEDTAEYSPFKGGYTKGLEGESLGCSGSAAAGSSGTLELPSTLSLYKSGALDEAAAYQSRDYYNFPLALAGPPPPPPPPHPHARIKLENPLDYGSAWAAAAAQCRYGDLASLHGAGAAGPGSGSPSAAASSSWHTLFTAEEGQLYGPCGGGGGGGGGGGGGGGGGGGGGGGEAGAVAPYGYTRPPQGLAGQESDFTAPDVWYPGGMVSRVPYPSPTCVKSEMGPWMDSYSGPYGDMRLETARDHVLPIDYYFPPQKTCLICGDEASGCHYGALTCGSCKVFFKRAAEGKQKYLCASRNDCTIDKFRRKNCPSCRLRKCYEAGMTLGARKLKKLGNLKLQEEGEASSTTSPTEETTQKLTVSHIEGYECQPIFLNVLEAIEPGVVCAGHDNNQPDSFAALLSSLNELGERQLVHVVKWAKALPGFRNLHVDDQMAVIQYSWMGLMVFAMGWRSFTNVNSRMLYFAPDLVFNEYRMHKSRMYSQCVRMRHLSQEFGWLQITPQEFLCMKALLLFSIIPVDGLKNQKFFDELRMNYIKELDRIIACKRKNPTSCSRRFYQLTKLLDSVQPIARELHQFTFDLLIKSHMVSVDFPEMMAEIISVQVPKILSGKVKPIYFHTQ
The experiment can be described thus: Androgenic/antiandrogenic action by transactivation test (PC3 reporter cells). Format: cell-based. Set-up: expressed in transfected cells; host or cells: PC3 cells. The essentials:
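PC3 reporter cells expressing androgen receptor with a steroid hormone-responsive promoter–luciferase construct were exposed to compounds for 16 h in triplicate. For antagonist mode, 0.05 nM R1881 was co-added for near-maximal stimulation. Luminescence was read after lysis and IC50 derived from dose–effect curves.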

For experiment [3], the target named is T2, androgen receptor. Put plainly: Androgen receptor binding test. Set-up: expressed in transfected cells. The following applies: reference substance 3H-testosterone.
For experiment [4], the target named is T1, mineralocorticoid receptor. Put plainly: Mineralocorticoid receptor binding test. The following applies: reference substance 3H-aldosterone, cytosol from MR-expressing insect cells (Hi5). Set-up: made in house; host or cells: Hi5 insect cells (cytosol). The essentials:
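Competitive binding measured with cytosol from Hi5 insect cells expressing the receptor. Displacement of ^3H-aldosterone as reference ligand gave the readout.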

Where [5] appears, read: PC-3, read-out: Androgen receptor Agonism efficacy.
The mark [6] stands for this setting: PC-3, read-out: Androgen receptor Antagonism efficacy.

`CC[C@]12CC[C@H]3[C@@H](C=CC4=CC(=O)CC[C@@H]43)[C@@H]1[C@@H]1C[C@@H]1[C@@]21C=CC(=O)O1` [Example 3, 17β-Hydroxy-18-methyl-15β,16β-methylene-19-nor-17α-pregna-4,6,20(Z)-trien-3-one-21-carboxylic acid γ-lactone]: the pIC50 in experiment [1] was 7.66. The Emax in experiment [1] turned out to be 97.6%; in experiment [2] (setting [5]), 25.4%; in experiment [2] (setting [6]), 5%. The pEC50 in experiment [2] was 6.92. Also, the “Androgen receptor Competition factor” value in experiment [3] is on record as 62.9. In addition, the “Mineralocorticoid receptor (MR) Competition factor” value in experiment [4] is recorded as 1.5.

In experiment [1], `C[C@@H]1CC2=CC(=O)CC[C@@H]2[C@H]2CC[C@@]3(C)[C@@H]([C@@H]4C[C@@H]4[C@@]34C=CC(=O)O4)[C@@H]21` [Example 23A, 17β-Hydroxy-7α-methyl-15β,16β-methylene-19-nor-17α-pregna-4,20(2)-dien-3-one-21-carboxylic acid γ-lactone] showed a pIC50 of 6.54. Further, the Emax in experiment [1] is 105%; in experiment [2] (setting [5]), 63.6%; in experiment [2] (setting [6]), 5%. The pEC50 in experiment [2] was 7.72. Moreover, in experiment [3], the “Androgen receptor Competition factor” value amounted to 4.2. In experiment [4], the “Mineralocorticoid receptor (MR) Competition factor” value stood at 1.9.
